Measured values reported in article PMC8192493 (Journal of medicinal chemistry, 2021).
≈ marks a conversion by molar mass, not a printed value. Entries after “also recorded” stand apart in the source; their conditions may differ.

What was measured:
[1] = system: six MRSA clinical isolates; experiment: MIC assays against MRSA clinical isolates; type: cell-based; conditions: Staphylococcus aureus, read-out: MIC against six MRSA clinical isolates
[2] = system: iron uptake genes isdB, sfaA, sbnC, MW0695 in MRSA-1707 biofilms; conditions: 5 μM; previous work ref 39; cited from earlier work
J774 macrophages = experiment: Alamar Blue cytotoxicity, J774 macrophages; type: cell-based; conditions: IC50 J774 MΦ and HepG2 vs MIC against MRSA, MRSE, VRE strains
[3] = system: MRSA, MRSE, and VRE strains; experiment: MIC summarised across several Gram-positive strains
[4] = system: iron uptake genes isdB, sfaA, sbnC, MW0695 in MRSA-1707 biofilms; experiment: RT-qPCR of iron uptake genes in MRSA biofilms; conditions: established biofilms, 4 h, 1 μM or 1/10 × MBEC
[5] = system: M. tuberculosis H37Ra (ATCC 25177); experiment: MIC assay for Mtb H37Ra; type: cell-based; conditions: Mycobacterium tuberculosis, ATCC25177|H37RA, 168 h, read-out: MIC Mtb H37Ra
[6] = system: VRE 700221 (E. faecium ATCC 700221); experiment: MIC broth microdilution, VRE 700221; conditions: 16 h
MRSE 35984 biofilms = experiment: Calgary biofilm device; conditions: Staphylococcus epidermidis, read-out: MRSE 35984 MBC

Which MIC [1] does the source give for Oc1c(Br)cc(Br)c2nc3ccccc3nc12 [HP 3] here?
Its MIC is 1.25 to 2.5 µM (≈ 0.443 to 0.885 µg/mL).

For c1ccc(CN(CCN(Cc2ccccn2)Cc2ccccn2)Cc2ccccn2)nc1 [TPEN, N,N,N′,N′-tetrakis(2-pyridinylmethyl)-1,2-ethanediamine], which “upregulation of iron uptake genes” value [2] is on record?
Its value is “do not upregulate”.

With Cc1cccc2nc3c(O)c(Br)c(Cl)c(Br)c3nc12 [HP 29, 2,4-Dibromo-3-chloro-6-methylphenazin-1-ol] as the compound, how does the MIC [1] read?
Its MIC is 0.06 to 0.12 µM (≈ 0.0241 to 0.0483 µg/mL).

And the “selectivity index (SI)” value (J774 macrophages)?
The value was over 2000.

And the “MICs against all Gram-positive strains in the panel” value [3]?
Its value is “submicromolar”.

And the “induction of iron starvation (upregulation of iron uptake genes)” value [4]?
Its value is “induce rapid iron starvation; also recorded: rapidly induce iron starvation”.

For Oc1c(Br)c(Cl)c(Br)c2nc3c(Cl)cc(Cl)cc3nc12 [HP 34, 2,4-Dibromo-3,6,8-trichlorophenazin-1-ol], which MIC [1] is on record?
The MIC was 0.47 to 1.25 µM (≈ 0.215 to 0.572 µg/mL).

Which “upregulation of iron uptake genes” value [2] does the source give for O=C(O)CN(CCN(CC(=O)O)CC(=O)O)CC(=O)O [EDTA, ethylenediaminetetraacetic acid] here?
The value was “do not upregulate”.

For CCSc1c(Br)c(O)c2nc3cccc(C)c3nc2c1Br [HP 45, 2,4-Dibromo-3-(ethylthio)-6-methylphenazin-1-ol], which MIC [1] is on record?
The MIC was 0.31 to 0.63 µM (≈ 0.133 to 0.27 µg/mL).

For CN[C@@H]1[C@H](O[C@H]2[C@H](O[C@H]3[C@H](O)[C@@H](O)[C@H](N=C(N)N)[C@@H](O)[C@@H]3N=C(N)N)O[C@@H](C)[C@]2(O)C=O)O[C@@H](CO)[C@H](O)[C@H]1O [streptomycin], which MIC [5] is on record?
The MIC was 1.32 µM (≈ 0.768 µg/mL).

What does the source list for CN[C@H](CC(C)C)C(=O)N[C@H]1C(=O)N[C@@H](CC(N)=O)C(=O)N[C@H]2C(=O)N[C@H]3C(=O)N[C@H](C(=O)N[C@H](C(=O)O)c4cc(O)cc(O)c4-c4cc3ccc4O)[C@H](O)c3ccc(c(Cl)c3)Oc3cc2cc(c3O[C@@H]2O[C@H](CO)[C@@H](O)[C@H](O)[C@H]2O[C@H]2C[C@](C)(N)[C@H](O)[C@H](C)O2)Oc2ccc(cc2Cl)[C@H]1O [vancomycin]?
MIC VRE 700221 ([6]; BHI, 37 °C, d lowest test concentration): >100 µM; MIC ([6]; Enterococcus, ATCC700221|VRE, read-out: MIC VRE 700221): > 100 µM; MBC (MRSE 35984 biofilms): 3 µM (≈ 4.35 µg/mL)
